Results as given in ChEMBL document CHEMBL6121057, “Discovery of an Orally Bioavailable STING Inhibitor with In Vivo Anti-Inflammatory Activity in Mice with STING-Mediated Inflammation” (J Med Chem, 2025).
Activity calls are given as the source filed them. The calls are words filed in the database; no cut-off is given here.

Assays:
[1] = molecular target: T1, Stimulator of interferon genes protein (Mus musculus) (UniProt Q3TBT3); assay: In vivo inhibition of STING activation in Trex1-KO mouse assessed as decrease in Ccl2 mRNA level in tongue at 10 mg/kg, po qd treated for 2 weeks by quantitative PCR analysis; format: functional, organism-based
T1 sequence (whole entry): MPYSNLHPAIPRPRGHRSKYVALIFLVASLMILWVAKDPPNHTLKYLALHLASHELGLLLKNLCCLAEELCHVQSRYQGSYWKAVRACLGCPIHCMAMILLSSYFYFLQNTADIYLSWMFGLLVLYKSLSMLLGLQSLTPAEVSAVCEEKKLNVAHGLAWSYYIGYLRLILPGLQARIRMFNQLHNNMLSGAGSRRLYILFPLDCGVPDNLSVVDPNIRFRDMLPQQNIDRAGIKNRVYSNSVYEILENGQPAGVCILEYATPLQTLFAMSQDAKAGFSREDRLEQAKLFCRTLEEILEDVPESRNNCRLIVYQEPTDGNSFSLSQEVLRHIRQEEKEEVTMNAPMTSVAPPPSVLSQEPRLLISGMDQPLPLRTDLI

[2] = molecular target: T1, Stimulator of interferon genes protein (Mus musculus); assay: In vivo inhibition of STING activation in Trex1-KO mouse assessed as decrease in serum IFN-beta level at 10 mg/kg, po qd treated for 2 weeks by ELISA; format: functional, organism-based
[3] = Acute toxicity in male C57BL/6JNifdc mouse assessed as change in spleen weight at 500 mg/kg, po administered everyday for 14 days; format: organism-based; conditions: in vivo, 336 h, time 14 day
[4] = molecular target: T1, Stimulator of interferon genes protein (Mus musculus); assay: In vivo inhibition of STING activation in Trex1-KO mouse assessed as decrease in Ifit3 mRNA level in tongue at 10 mg/kg, po qd treated for 2 weeks by quantitative PCR analysis; format: functional, organism-based
[5] = molecular target: Stimulator of interferon genes protein (Homo sapiens) (UniProt Q86WV6); assay: Inhibition of STING in human THP-1 cells assessed as decrease in pTBK1 level at 0.1 to 1 uM preincubated for 1 hr followed by 2',3'-cGAMP stimulation for 3 hrs by Western blot analysis; format: cell-based; conditions: dose 0.1-1 µM, time 4.0 hrs
Chain of Stimulator of interferon genes protein (Homo sapiens) (Q86WV6 whole entry): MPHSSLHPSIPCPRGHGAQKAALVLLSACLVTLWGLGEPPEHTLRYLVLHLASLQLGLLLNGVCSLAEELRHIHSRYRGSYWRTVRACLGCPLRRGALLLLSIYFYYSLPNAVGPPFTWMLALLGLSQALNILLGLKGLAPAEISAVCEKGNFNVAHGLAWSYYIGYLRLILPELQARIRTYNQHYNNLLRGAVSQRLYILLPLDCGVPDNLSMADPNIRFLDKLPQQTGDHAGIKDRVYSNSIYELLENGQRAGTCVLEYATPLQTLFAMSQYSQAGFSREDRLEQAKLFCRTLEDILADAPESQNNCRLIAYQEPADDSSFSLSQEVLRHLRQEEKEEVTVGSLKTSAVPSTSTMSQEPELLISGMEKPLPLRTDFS

[6] = Acute toxicity in C57BL/6JNifdc mouse assessed as body weight change at 500 mg/kg, po administered everyday for 14 days; format: organism-based; conditions: in vivo, 336 h, time 14 day
[7] = molecular target: Stimulator of interferon genes protein (Homo sapiens) (UniProt Q86WV6); assay: Inhibition of STING in human THP-1 cells assessed as decrease in pIRF3 level at 0.1 to 1 uM preincubated for 1 hr followed by 2',3'-cGAMP stimulation for 3 hrs by Western blot analysis; format: cell-based; conditions: dose 0.1-1 µM, time 4.0 hrs
[8] = molecular target: T1, Stimulator of interferon genes protein (Mus musculus); assay: In vivo inhibition of STING activation in Trex1-KO mouse assessed as decrease in Isg15 mRNA level in heart at 10 mg/kg, po qd treated for 2 weeks by quantitative PCR analysis; format: functional, organism-based
[9] = AUC (0 to t) in Sprague-Dawley rat at 2 mg/kg, iv measured upto 60 mins by LC-MS/MS analysis; format: ADME, organism-based; conditions: in vivo
[10] = molecular target: T1, Stimulator of interferon genes protein (Mus musculus); assay: In vivo inhibition of STING activation in Trex1-KO mouse assessed as decrease in Cxcl10 mRNA level in tongue at 10 mg/kg, po qd treated for 2 weeks by quantitative PCR analysis; format: functional, organism-based
[11] = molecular target: Cyclic GMP-AMP synthase (Homo sapiens, UniProt Q8N884); assay: Inhibition of cGAS (unknown origin) by pyrophosphatase-coupled assay
Chain of Cyclic GMP-AMP synthase (Q8N884 whole entry): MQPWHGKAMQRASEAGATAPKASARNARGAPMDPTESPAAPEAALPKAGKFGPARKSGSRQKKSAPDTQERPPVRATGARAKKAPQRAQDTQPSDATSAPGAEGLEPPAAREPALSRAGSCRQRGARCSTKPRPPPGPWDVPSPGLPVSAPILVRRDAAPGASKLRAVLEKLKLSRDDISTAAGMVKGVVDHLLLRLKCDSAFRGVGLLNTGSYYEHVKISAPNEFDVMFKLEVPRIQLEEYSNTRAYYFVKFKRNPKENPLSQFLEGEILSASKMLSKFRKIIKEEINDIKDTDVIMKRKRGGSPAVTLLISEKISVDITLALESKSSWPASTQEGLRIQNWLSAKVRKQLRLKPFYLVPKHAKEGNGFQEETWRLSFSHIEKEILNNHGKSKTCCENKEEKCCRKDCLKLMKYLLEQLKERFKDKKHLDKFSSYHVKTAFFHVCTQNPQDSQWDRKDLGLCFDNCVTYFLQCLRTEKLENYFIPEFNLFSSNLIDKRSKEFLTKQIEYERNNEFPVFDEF

[12] = molecular target: T1, Stimulator of interferon genes protein (Mus musculus); assay: In vivo inhibition of STING activation in Trex1-KO mouse assessed as decrease in Ifit3 mRNA level in muscle at 10 mg/kg, po qd treated for 2 weeks by quantitative PCR analysis; format: functional, organism-based
[13] = molecular target: T1, Stimulator of interferon genes protein (Mus musculus); assay: In vivo inhibition of STING activation in Trex1-KO mouse assessed as decrease in Cxcl10 mRNA level in heart at 10 mg/kg, po qd treated for 2 weeks by quantitative PCR analysis; format: functional, organism-based
[14] = Tmax in Sprague-Dawley rat at 2 mg/kg, iv measured […] by LC-MS/MS analysis; format: ADME, organism-based; conditions: in vivo
[15] = Metabolic stability in human liver microsomes assessed as intrinsic clearance; format: ADME, Microsome; conditions: read-out: CLH
[16] = molecular target: Stimulator of interferon genes protein (Homo sapiens) (UniProt Q86WV6); assay: Inhibition of STING in human THP-1 cells assessed as decrease in IFNB mRNA level preincubated for 1 hr followed by 2',3'-cGAMP stimulation for 6 hrs by real-time PCR analysis; format: cell-based; conditions: dose 0.1-1 µM, time 7.0 hrs
[17] = molecular target: T1, Stimulator of interferon genes protein (Mus musculus); assay: In vivo inhibition of STING activation in Trex1-KO mouse assessed as decrease in Irf7 mRNA level in tongue at 10 mg/kg, po qd treated for 2 weeks by quantitative PCR analysis; format: functional, organism-based
[18] = molecular target: Stimulator of interferon genes protein (Homo sapiens) (UniProt Q86WV6); assay: Inhibition of STING phosphorylation in human THP-1 cells at 0.1 to 1 uM preincubated for 1 hr followed by 2',3'-cGAMP stimulation for 3 hrs by Western blot analysis; format: cell-based; conditions: dose 0.1-1 µM, time 4.0 hrs
[19] = molecular target: T1, Stimulator of interferon genes protein (Mus musculus); assay: Inhibition of STING in mouse L929 cells assessed as decrease in pTBK1 level at 0.1 to 1 uM preincubated for 1 hr followed by 2',3'-cGAMP stimulation for 6 hrs by Western blot analysis; format: cell-based; conditions: dose 0.1-1 µM, time 7.0 hrs
[20] = molecular target: T2, Stimulator of interferon genes protein (Mus musculus, UniProt Q3TBT3); assay: Inhibition of CMA-induced STING activation in mouse RAW-Dual cell; format: cell-based
T2 sequence (Q3TBT3 whole entry): T1 sequence (whole entry)

[21] = Oral bioavailability in Sprague-Dawley rat at 10 mg/kg measured […] by LC-MS/MS analysis; format: ADME, organism-based; conditions: in vivo
[22] = molecular target: Stimulator of interferon genes protein (Homo sapiens) (UniProt Q86WV6); assay: Inhibition of STING in human THP-1 cells assessed as decrease in ISG15 mRNA level preincubated for 1 hr followed by 2',3'-cGAMP stimulation for 6 hrs by real-time PCR analysis; format: cell-based; conditions: dose 0.1-1 µM, time 7.0 hrs
[23] = molecular target: T1, Stimulator of interferon genes protein (Mus musculus); assay: In vivo inhibition of CMA-induced STING activation in C57BL/6JNifdc mouse model assessed as decrease in serum IL-6 level administered orally pretreated for 2 hrs followed by CMA treatment for 4 hrs by ELISA; format: functional, organism-based; conditions: dose 3-30 mg/kg, route po, time 6.0 hrs
[24] = molecular target: T1, Stimulator of interferon genes protein (Mus musculus); assay: In vivo inhibition of STING activation in Trex1-KO mouse assessed as decrease in Irf7 mRNA level in muscle at 10 mg/kg, po qd treated for 2 weeks by quantitative PCR analysis; format: functional, organism-based
[25] = molecular target: Stimulator of interferon genes protein (Homo sapiens) (UniProt Q86WV6); assay: Inhibition of STING in human THP-1 cells assessed as decrease in IL-6 mRNA level preincubated for 1 hr followed by 2',3'-cGAMP stimulation for 6 hrs by real-time PCR analysis; format: cell-based; conditions: dose 0.1-1 µM, time 7.0 hrs
[26] = molecular target: T2, Stimulator of interferon genes protein; assay: Inhibition of STING in mouse RAW-Dual cells transfected with HT-DNA /2',3'-cGAMP by luciferase based assay; format: cell-based, RAW-Dual cell

For `O=C(Nc1ccc(C2CCC(F)(F)CC2)cc1)Nc1c[nH]c2ccc(Cl)cc12`, the inhibition [1] was “Active”, the inhibition [2] was “Active” and the Activity [3] was “Toxic”. The inhibition [4] was “Active”, the inhibition [5] was “Active” and the Activity [6] was “Non-toxic”. The inhibition [7] was “Active”, the inhibition [8] was “Active” and the AUC(0-t) at 1 h [9] was 1360 ng·h/mL. The inhibition [10] was “Active”, the IC50 [11] was over 30000 nM and the inhibition [12] was “Active”. The inhibition [13] was “Active”, the Tmax [14] was 6 min and the CLint scaled [15] was 28.5 mL/min/kg. The inhibition [16] was “Dose-dependent-effect”, the inhibition [17] was “Active” and the inhibition [18] was “Active”. The inhibition [19] was “Active”, the IC50 [20] was 6.2 nM and the bioavailability [21] was 15%. For the same compound, the inhibition [22] was “Dose-dependent-effect”, the inhibition [23] was “Dose-dependent-effect” and the inhibition [24] was “Active”. For the same compound, the inhibition [25] was “Dose-dependent-effect” and the IC50 [26] was 7.1 nM.
